Assay results as given in PMC10926482, “BK Channels Are Activated by Functional Coupling With L-Type Ca^2+ Channels in Cricket Myocytes” (Frontiers in Insect Science, 2021).

System: T1, BK channel (large-conductance Ca2+-activated K+ channel) of cricket oviduct myocytes
T1 construct: gene slo; native channel in isolated adult female lateral oviduct myocytes; single-channel patch clamp; not molecularly identified; homotetramer expected, auxiliary subunits unknown
Experiment: cell-attached single-channel patch clamp, current amplitude, pipette backfill
Type: cell-based, Gryllus bimaculatus
Conditions: extracellular side; open-channel block; Hill coefficient 1.0; pipette solution 140 mM KCl, 1.6 mM CaCl2, pH 7.4; 22–27°C; counterion not given
Description: cell-attached single-channel patch clamp, current amplitude, pipette backfill on BK channel (large-conductance Ca2+-activated K+ channel) of cricket oviduct myocytes | inhibitory effect on the current amplitude of a single BK channel with an IC50 value

Question: Which IC50 does the source give for CC[N+](CC)(CC)CC [TEA, tetraethylammonium] here?
Answer: The IC50 was 319 ± 68.8 µM.
